Experiments:
[1] = test system: normal NK cells expanded with K562-aAPC; test: drug sensitivity score (DSS) (DSS units); higher = more sensitive; extreme values may be limits of the assay; settings: 72 h; IL-2 2.5 ng/mL
Method: (§1)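 Drug sensitivity and resistance testing on K562-aAPC-expanded normal NK cells: 5 concentrations (10-fold steps over a 10,000-fold range), 72 h at 37 °C, viability by CellTiter-Glo normalised to DMSO and benzethonium chloride controls; DSS from the fitted curve.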

[2] = test system: normal NK cells expanded with K562-aAPC; test: percent inhibition of viability; higher = more inhibition; settings: 72 h, IL-2 2.5 ng/mL
Method: as §1

[3] = test system: normal primary NK cells, pool 3 (3 donors) (IL-2 2.5 ng/mL); test: as above; settings: 72 h
[4] = test system: NK-92 (IL-2 2.5 ng/mL); test: as above; settings: 72 h
[5] = test system: NKL (IL-2 2.5 ng/mL); test: as above; settings: 72 h
[6] = test system: YT (IL-2 2.5 ng/mL); test: as above; settings: 72 h
[7] = test system: normal primary NK cells, pool 1 (3 donors) (IL-2 2.5 ng/mL); test: as above; settings: 72 h
[8] = test system: IMC-1 (IL-2 20 ng/mL); test: as above; settings: 72 h
[9] = test system: KHYG-1 (IL-2 2.5 ng/mL); test: as above; settings: 72 h
[10] = test system: DERL-7 (IL-2 2.5 ng/mL); test: as above; settings: 72 h
[11] = test system: SNK-6 (IL-2 2.5 ng/mL); test: as above; settings: 72 h
[12] = test system: KAI3 (IL-2 2.5 ng/mL); test: as above; settings: 72 h
[13] = test system: normal primary NK cells, pool 2 (3 donors) (IL-2 2.5 ng/mL); test: as above; settings: 72 h
[14] = test system: NK-YS (IL-2 2.5 ng/mL); test: as above; settings: 72 h
[15] = test system: normal primary NK cells, pool 1 (3 donors), resting (IL-2 0 ng/mL); test: as above; settings: 72 h
[16] = test system: normal primary NK cells, pool 3 (3 donors) (IL-2 2.5 ng/mL); test: drug sensitivity score (DSS) (DSS units); higher = more sensitive; extreme values may be limits of the assay; settings: 72 h
[17] = test system: NK-92 (IL-2 2.5 ng/mL); test: as above; settings: 72 h
[18] = test system: NKL (IL-2 2.5 ng/mL); test: as above; settings: 72 h
[19] = test system: YT (IL-2 2.5 ng/mL); test: as above; settings: 72 h
[20] = test system: normal primary NK cells, pool 1 (3 donors) (IL-2 2.5 ng/mL); test: as above; settings: 72 h
[21] = test system: IMC-1 (IL-2 20 ng/mL); test: as above; settings: 72 h
[22] = test system: KHYG-1 (IL-2 2.5 ng/mL); test: as above; settings: 72 h
[23] = test system: DERL-7 (IL-2 2.5 ng/mL); test: as above; settings: 72 h
[24] = test system: SNK-6 (IL-2 2.5 ng/mL); test: as above; settings: 72 h
[25] = test system: KAI3 (IL-2 2.5 ng/mL); test: as above; settings: 72 h
[26] = test system: normal primary NK cells, pool 2 (3 donors) (IL-2 2.5 ng/mL); test: as above; settings: 72 h
[27] = test system: NK-YS (IL-2 2.5 ng/mL); test: as above; settings: 72 h
[28] = test system: normal primary NK cells, pool 1 (3 donors), resting (IL-2 0 ng/mL); test: as above; settings: 72 h

O=C(O)c1ccc(-c2c[nH]c3ncc(-c4ccccc4)cc23)cc1C1CCCC1 (max concentration tested 10000 nM)
Settings | drug sensitivity score
[1] | 6.12
[16] | 1.43
[17] | 4.5
[18] | 7.3
[19] | 3.73
[20] | 3.22
[21] | 4.18
[22] | 8.41
[23] | 4.22
[24] | 0
[25] | 8.09
[26] | 3.48
[27] | 4.89
[28] | 3.47

percent inhibition of viability [%]
Settings | 1 nM | 10 nM | 100 nM | 1000 nM | 10000 nM
[2] | 0.69 | -1.15 | 0.93 | 14.6 | 68.6
[3] | 2.83 | 5.65 | 10 | 2.66 | 25.9
[4] | -7.79 | -6.02 | -14.8 | 6.45 | 63.1
[5] | -3 | 3.11 | 11.4 | 27.3 | 76.9
[6] | 3.57 | -0.35 | 6.38 | 10.9 | 43.5
[7] | -4.88 | 9.93 | 9.09 | 13.8 | 33.7
[8] | -3.86 | -6.5 | -2.05 | 1.32 | 72.7
[9] | 1.54 | -1.17 | 6.23 | 24.4 | 87.8
[10] | -9.96 | -1.92 | -0.6 | 3.14 | 69
[11] | 2.78 | -21.4 | -20.9 | -24.3 | -8.86
[12] | 14.8 | 11.5 | 12.9 | 31 | 53.1
[13] | -5.78 | -5.79 | -4.92 | 6.53 | 46
[14] | 3.9 | -4.11 | 6.44 | 17.4 | 53.2
[15] | -0.46 | 4.28 | 6.33 | 11.9 | 41.2

CCCCCCCCc1ccc(CCC(N)(CO)CO)cc1 [Fingolimod] (max concentration tested 10000 nM)
Settings | drug sensitivity score
[1] | 8.27
[16] | 5.22
[17] | 5.44
[18] | 9.92
[19] | 6.91
[20] | 6.91
[21] | 7.23
[22] | 7.28
[23] | 7.91
[24] | 7.85
[25] | 8.95
[26] | 8.2
[27] | 7.3
[28] | 5.33

percent inhibition of viability [%]
Settings | 1 nM | 10 nM | 100 nM | 1000 nM | 10000 nM
[2] | -2.7 | -1.12 | 2.03 | 16.4 | 101
[3] | -17.7 | -6.84 | 5.41 | -5.02 | 100
[4] | 1.29 | 3.97 | 7.28 | -5.13 | 103
[5] | -3 | 6.8 | 9.6 | 30.1 | 101
[6] | 1.77 | 4.72 | 1.22 | 8.33 | 101
[7] | -0.71 | -3.03 | -0.07 | 8.48 | 101
[8] | 1.04 | 3.67 | 4.21 | 10.1 | 101
[9] | -0.79 | 1.01 | 0.07 | 10.2 | 102
[10] | 2.13 | -1.97 | 5.25 | 14.2 | 100
[11] | 2.86 | 25.2 | 18.7 | 13.7 | 101
[12] | -5.76 | 2.36 | -1.55 | 21.5 | 101
[13] | -5.21 | -6.36 | 4.8 | 16 | 101
[14] | -1.37 | 0.63 | 1.86 | 10.4 | 102
[15] | 0.28 | -1.75 | -1.3 | -3.49 | 100

Oc1nc(-c2ccc(C(F)(F)F)cc2)nc2c1CSCC2 [XAV-939] (max concentration tested 10000 nM)
Settings | drug sensitivity score
[1] | 1.76
[16] | 0
[17] | 5.52
[18] | 0.48
[19] | 0
[20] | 0
[21] | 3.24
[22] | 0.01
[23] | 0
[24] | 8.49
[25] | 0
[26] | 0
[27] | 0
[28] | 0

percent inhibition of viability [%]
Settings | 1 nM | 10 nM | 100 nM | 1000 nM | 10000 nM
[2] | 1.61 | 2.89 | 1.43 | 14.1 | 19.3
[3] | -11 | -5.69 | -2.72 | 0.89 | 10.2
[4] | -10.9 | 2.21 | 17.2 | 22 | 31.4
[5] | 1.91 | -6.23 | 10.7 | 20.1 | 4.9
[6] | 4.14 | 5.64 | 7.84 | -1.3 | 6.37
[7] | 7.73 | 0.81 | -0.78 | 0.58 | 4.2
[8] | -0.75 | 0.78 | 6.56 | 9.99 | 39.2
[9] | -8.26 | -1.11 | 3.24 | 1.73 | 10.4
[10] | -0.97 | 2.31 | -5.81 | -0.61 | -5.6
[11] | -1.06 | -8.2 | 12.5 | 35.6 | 76
[12] | -2.16 | 1.91 | 4.79 | 4.07 | 5.97
[13] | -8.38 | -12 | -5.14 | 5.25 | 5.51
[14] | -12.6 | -2.95 | -1.3 | -3.02 | 5.39
[15] | -4.7 | -1.64 | -3.21 | -28.2 | -2.43

From the supplement of paper PMC5908809
